These results are taken from US5030624A, “R-diastereomer of an N^6 -[(2-hydroxypropyl)aryl]adenosine and its medicinal uses” (G. D. Searle & Co., priority 1988, dated 1991).

Series [1] deals with adenosine Al receptor in the granular juxtaglomerular cells of the kidney. Conditions: Federation Proceedings 44:879 & 1643, 1985; cited from earlier work.
Series [2] relates to plasma renin activity (PRA). Briefly: Change in plasma renin activity (PRA) in the bilateral renal artery ligated rat. The class given is in vivo, rat (Sprague-Dawley). Conditions: 1 mg/kg I.V.; for prevention of PRA increases / inhibition of renin release (in words): 30 and 60 minutes; for CHANGE IN PRA: ^+ different from vehicle, p < .05. The method, then: Adenosine Al receptor stimulation will inhibit the release of renin from the kidney. A stimulus for the release of renin is renal ischemia. The ability of the compounds of the present invention to prevent an increase in PRA following renal ischemia was tested in rats with both renal arteries ligated. Sprague-Dawley rats were anesthetized with ether and the renal arteries were ligated. Three to five hours after anesthesia, arterial blood was sampled and compounds I and II were administered in polyethylene glycol at 1 mg/kg I.V. At 30 and 60 minutes after administration, arterial blood was sampled for PRA measurement by the method of Sealy, J. E. et al., Cardiovasc. Med. 2:1079, 1977.

Another series deals with hypertensive models. Conditions: Federation Proceedings 44:879 & 1643, 1985; cited from earlier work.
The test system of series [3] is mice. The series is described as follows: Behavioral toxicity at various times in mice. As to MOTOR DEPRESSION: key: +: toxic symptom observed; +*: toxic symptom observed; *2/7. As to PTOSIS: key: +: toxic symptom observed; +*: toxic symptom observed; *2/7. As to RESPIRATORY DEPRESSION: key: +: toxic symptom observed; +*: toxic symptom observed; *2/7. As to loss of righting reflex: key: +: toxic symptom observed; +*: toxic symptom observed; *2/7. The class given is in vivo. The method, then: The mice had previously been trained to remain on a rotating rod. After dosing, the percent of mice unable to remain on the rotating rod was determined. […] The mice were also observed at various time intervals for behavioral signs of toxicity.

Series [4] has as its system spontaneously hypertensive rats (SHR). The series is described as follows: Effects on MAP and HR in conscious spontaneously hypertensive rats (SHR), I.V. or intragastric. Format: in vivo, rat. The method, then: The effects of compounds I and II were tested intravenously or intragastrically in conscious spontaneously hypertensive rats (SHR). The rats were anesthetized with ether and the left carotid artery and right jugular vein were cannulated with polyethylene tubing. The rats were allowed three to five hours recovery from anesthesia for the I.V. studies and 12 to 18 hours for the oral studies. Mean arterial pressure (MAP, in mm/Hg) and heart rate (HR, beats/min.) were measured from the artery; intravenous administration of compounds was performed by injection into the vein. Oral administration was performed by gastric intubation. Compounds were dissolved in DMSO for I.V. studies and injected in volumes of 100 μl/kg or less (N=5 per compound). Doses were 3 to 1,000 μg/kg. Compounds were dissolved in polyethylene glycol for oral administration and injected in volumes of 1 ml/kg at a dose of 20 mg/kg/day for three days (N=3 to 6 per compound).
The resting MAP and HR for the SHR ranged between 160-200 mm Hg and 330/350 b/min., respectively.
Thus, the effects of the three compounds on MAP and HR were indistinguishable both by I.V. and oral administration.

Series [5] concerns mice. The series is described as follows: Ataxia on rotating rod in mice. Format: in vivo. Conditions: ip, 0.5 or 3 hours. The method, then: Adenosine analogs tend to produce sedation and central nervous system depression which have prevented their therapeutic utility. The compounds of the invention, at doses which lower arterial pressure in the SHR, show no evidence of CNS depression. The ataxia produced by compounds of the present invention was measured in mice by injecting the compounds IP at doses of 32, 56, or 75 mg/kg in an aqueous suspension, n=7 per dose. The mice had previously been trained to remain on a rotating rod. After dosing, the percent of mice unable to remain on the rotating rod was determined. […] The mice were also observed at various time intervals for behavioral signs of toxicity.

The nature of series [6]: Solubility of the separated diastereomers. Format: physicochemical. Conditions: for solubility in MeOH (in words): S isomer and R isomer compared.
The mark [7] stands for this setting: SHR, 20 mg/kg/day intragastric, day 2 of oral administration, N=3 to 6.

The structures appear in SMILES notation. “Also recorded” adds a separate entry of the source.

As for `OC[C@H]1O[C@@H](n2cnc3c(NCC(O)COc4cccc5ccccc45)ncnc32)[C@H](O)[C@@H]1O` (mixture of isomers) [Compound I, N(6)-[2-hydroxy-3-(1-naphthyloxy)propyl]-adenosine], the “binding to the adenosine Al receptor, inhibition of renin release (in words)” value in series [1] was “binds to the adenosine Al receptor in the granular juxtaglomerular cells of the kidney to inhibit release of renin into the plasma”. Further, the “prevention of PRA increases / inhibition of renin release (in words)” value in series [2] is recorded as “prevented to the same extent”. In addition, in the series with hypertensive models, the “arterial blood pressure and heart rate (in words)” value is “reducing arterial blood pressure and heart rate in hypertensive models”. The “toxicity (in words)” value in the series with mice [3] (18-20 hours, 75 mg/kg ip) is given as “still producing several of the toxic symptoms”. In addition, in the series on mice [3] (18-20 hr, 75 mg/kg ip), the “FLACCIDITY, animals affected (footnote)” value was 2/7; the “MOTOR DEPRESSION” value is given as “+”; the PTOSIS entry is recorded as “+”; the “RESPIRATORY DEPRESSION” value was “+”. For the same compound, in the series on mice [3] (0.5 hr, 75 mg/kg ip), the “MOTOR DEPRESSION” value is on record as “+”, the PTOSIS result is reported as “+” and the “RESPIRATORY DEPRESSION” value is “+”. In the series on mice [3] (3 hours, 75 mg/kg ip), the “toxicity (in words)” value was “flaccidity and loss of righting reflex”. Moreover, in the series with mice [3] (3 hr, 75 mg/kg ip), the FLACCIDITY entry is recorded as “+”, the “LOSS OF RIGHTING REFLEX” value is “+”, the “MOTOR DEPRESSION” value is recorded as “+” and the PTOSIS entry is given as “+”. In addition, the “RESPIRATORY DEPRESSION” value with mice [3] (3 hr, 75 mg/kg ip) is “+”.
With `OC[C@H]1O[C@@H](n2cnc3c(NC[C@@H](O)COc4cccc5ccccc45)ncnc32)[C@H](O)[C@@H]1O` [Compound II, N^6-[2R-hydroxy-3-(1-naphthalenyloxy)propyl]-adenosine], in series [4] (Rattus norvegicus, iv, conscious SHR, I.V. in DMSO, N=5 per compound, read-out: IV DOSE TO DECREASE HR by 100 b/min), the ED (HR decrease by 100 b/min) was 0.031 ± 0.0014 mg/kg. Further, the ED (MAP decrease by 40 mmHg) in series [4] (Rattus norvegicus, iv, conscious SHR, I.V. in DMSO, N=5 per compound, read-out: IV DOSE TO DECREASE MAP by 40 mmHg) was 0.033 ± 0.0012 mg/kg. Besides, in series [4] (setting [7]), the “MAXIMUM DECREASE AT 20 MG/KG ig: HR” value stood at 177 ± 19 b/min and the “MAXIMUM DECREASE AT 20 MG/KG ig: MAP” value is given as 50 ± 14 mmHg. In addition, the “prevention of PRA increases / inhibition of renin release (in words)” value in series [2] is recorded as “prevented to the same extent”. The “CHANGE IN PRA” value in series [2] (30 minutes after dosing) is -6.6 ngAI/ml/hr. Further, in series [2] (60 minutes after dosing), the “CHANGE IN PRA” value is recorded as -6.3 ngAI/ml/hr. In addition, in the series with mice [5], the “ataxia / motor toxicity (in words)” value is “less ataxia at 0.5 or 3 hours as compared to compound I; also recorded: less motor toxicity than compound I”. Besides, the “toxicity (in words)” value in the series with mice [3] (18-20 hours, 75 mg/kg ip) is reported as “no toxicity was observed”. Also, in the series on mice [3] (0.5 hr, 75 mg/kg ip), the “MOTOR DEPRESSION” value was “+”, the PTOSIS result was “+” and the “RESPIRATORY DEPRESSION” value is recorded as “+”. In the series on mice [3] (3 hr, 75 mg/kg ip), the “MOTOR DEPRESSION” value is “+”, the PTOSIS entry is recorded as “+” and the “RESPIRATORY DEPRESSION” value is “+”. Besides, the “overall toxicity compared with compound I (in words)” value in the series with mice [3] (mice, ip, ataxia and behavioral toxicity) was “substantially less toxic than compound I; also recorded: unexpectedly less toxic than compound I, both with regard to ataxia and behavioral toxicity; also recorded: less central nervous system toxicity than the racemic mixture”. Further, the “solubility in MeOH (in words)” value in series [6] is “more soluble in MeOH”. Besides, in series [6] (R diastereomer, solvent not stated), the “solubility (in words)” value is listed as “different solubility”.
Regarding `OC[C@H]1O[C@@H](n2cnc3c(NC[C@H](O)COc4cccc5ccccc45)ncnc32)[C@H](O)[C@@H]1O` [S isomer], the “solubility in MeOH (in words)” value in series [6] is reported as “less soluble in MeOH”.
